Data as given in article doi:10.1101/704536v1 (biorxiv, 2019).

How the values were obtained:
[1] = molecular target: T1, repeat Tau (K18) (Homo sapiens, UniProt P10636); assay: UV-visible absorbance titration at […] nm; type: binding
[2] = molecular target: T1, repeat Tau (K18); assay: ThS fluorescence, inhibition of heparin-induced aggregation; type: biochemical

T1 sequence (P10636 561-689 limits assumed): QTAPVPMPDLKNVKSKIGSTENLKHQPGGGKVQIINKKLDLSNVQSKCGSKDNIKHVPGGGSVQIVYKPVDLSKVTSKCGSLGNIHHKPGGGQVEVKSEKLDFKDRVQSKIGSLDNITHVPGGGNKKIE

O=c1cc(-c2ccccc2)oc2cc(O)c(O)c(O)c12 [Baicalein]
Kd [1]: 3.5 µM | IC50 [2]: 35.8 µM
